Assay results from paper PMC11284787, “Ligand-Directed Labeling of the Adenosine A1 Receptor in Living Cells” (Journal of Medicinal Chemistry, 2024).

How the values were obtained:
SNAP-A1AR = tested on: T1, SNAP-A1AR; assay: Confocal A1AR internalisation and Rab5 immunolabelling; assay type: cell-based, human; details: 10 μM agonist 2 h; cells prelabeled with 30 nM 11
T1 construct: expressed in transfected cells; host or cells: HEK293T, transient transfection (FuGENE HD)
Excerpt: A natural concern would be the potential for the covalently transferred fluorophore to prevent access of ligands to the orthosteric binding site of the labeled receptor. To address this question, we employed probe 11 to visualize the internalization pathway of the hA1AR by confocal microscopy. […] Cells were immunolabeled with the Anti-Rab5 monoclonal antibody and visualized by treatment with AF488-conjugated secondary antibody (middle frames, green channel). Right-hand frames show merged images of both magenta and green channels. […] The confocal images are representative of images acquired from three independent experiments. […] 37 °C 5% CO2. […] […] at 37 °C, 5% CO2. […] Cells were […] […] Cells were washed 3x 5 min with PBS.

NL-hA1AR = biological target: T2, NL-hA1AR (Homo sapiens, UniProt P30542); assay: NanoBRET dissociation kinetics, NL-hA1AR HEK293T cells; assay type: binding; details: NL-hA1AR HEK293T cells, CA200645 preincubated 2 h
T2 construct: expressed in transfected cells
T2 sequence (P30542 1-326): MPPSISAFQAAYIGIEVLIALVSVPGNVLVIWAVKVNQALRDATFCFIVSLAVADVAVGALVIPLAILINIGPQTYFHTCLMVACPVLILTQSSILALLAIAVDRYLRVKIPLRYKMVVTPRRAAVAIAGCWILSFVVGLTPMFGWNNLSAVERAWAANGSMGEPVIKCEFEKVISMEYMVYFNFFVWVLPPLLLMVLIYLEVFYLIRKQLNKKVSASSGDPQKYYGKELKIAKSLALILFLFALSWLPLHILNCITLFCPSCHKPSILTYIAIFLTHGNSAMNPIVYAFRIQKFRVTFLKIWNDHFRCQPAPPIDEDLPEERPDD
Procedure: Figure 3 Molecular pharmacology and biochemical characterization of 11 and 12. NanoBRET ligand-binding data were measured in HEK293 cells stably expressing the human NL-A1AR (A–C) or rat NL-A1AR (D–F). […] Data were normalized to maximal BRET signals in the absence of unlabeled competing ligands (total binding, TB). (C, F) NanoBRET dissociation kinetics experiments with 11 (SulfoCy5) performed in human and rat NL-A1AR HEK293T cells, respectively. Cells were treated with 250 nM 11 (SulfoCy5, lilac open circles) for 5 h and CA200645 (black open triangles) for 2 h. […] TS-SNAP-A1AR was purified and separated on an SDS-PAGEgel gel, and direct Cy5 fluorescence was visualized using in-gel fluorescence. […]
The small reduction in the BRET signal observed toward the end of the reads could be mostly likely ascribed to substrate (furimazine) consumption. […] To confirm covalent labeling of A1AR by 11 and 12, HEK293G cells stably expressing a Twin-Strep-SNAP-A1AR(TS-SNAP-A1R) construct were treated with 11 or 12 prior to purification, separation by sodium dodecyl sulfate-polyacrylamide gel electrophoresis (SDS-PAGE) and visualization of labeled samples by in-gel fluorescence (Figure 3G). […]
37 °C for kinetic binding experiments. Emissions were read at 420 nm (80 nm bandpass; […]

OC[C@H]1O[C@@H](n2cnc3c(NC4CCCC4)nc(Cl)nc32)[C@H](O)[C@@H]1O [CCPA, 2-chloro-N^6-cyclopentyladenosine]
localization of SulfoCy5-labeled SNAP-A1AR at the plasma membrane after agonist (SNAP-A1AR): markedly reduced

CA200645 [reference compound]
time for BRET signal to return to baseline after addition of 10 μM DPCPX (NL-hA1AR): ≤ 4.7 min
